Where “and” joins values, the source holds several entries; their conditions need not be identical. Equal entries are not always repeated. Entries after “also recorded” stand apart in the source; their conditions may differ.
Legend:
SOD1^G85R = molecular target: T1, SOD1^G85R (Homo sapiens, UniProt P00441, G86R); test: Differential scanning fluorimetry (DSF), thermal stability; assay type: binding
T1 construct: made in house; host or cells: EGy118ΔSOD1 yeast, YEp351 expression vector
Experimental: (§1) To understand how cross-linking effects SOD1 stability, we quantified changes in unfolding temperature (ΔTu, hereafter thermal stability).
(§2) The effect of cross-link formation on the thermal stability of SOD1 was determined by differential scanning fluorimetry as previously described. […] After incubation, SYPRO Orange (Invitrogen Corporation, Carlsbad, California, USA), an environmentally sensitive fluorescent dye which is quenched in an aqueous environment but becomes unquenched once it binds hydrophobic residues, was added to the reaction mixture to a final concentration of 200×. The samples were then transferred to a fast optical 96-well reaction plate (Applied Biosystem, Life Technologies Corporation, Carlsbad, California, USA) and loaded on to the real-time PCR machine (Applied Biosystem, Life Technologies Corporation, Carlsbad, California, USA) after plate was spun down to eliminate bubbles. The Melt curve template in StepOne Plus software was used to set up a method. […] The final concentration of DMSO in the reaction mixture was checked as it contributes to the denaturation of proteins. Dilutions were performed accordingly to maintain the final concentration of DMSO less than 1% (vol/vol). All samples were run in technical triplicates. The background data was subtracted from the average relative fluorescence and average derivate for each temperature point, and the data were normalized before Tus were quantified by averaging the negative first derivative of relative fluorescence of all 3 runs and identifying the local minima.

SOD1^H46R = molecular target: T2, SOD1^H46R (Homo sapiens, UniProt P00441, H47R); test: as above; assay type: binding
T2 construct: made in house; host or cells: EGy118ΔSOD1 yeast, YEp351 expression vector
Experimental: as §1, §2

B6SJL G93A mice = test: Survival study, hybrid B6SJL G93A mice, S-XL6 SC 20 then 50 mg/kg once a day Monday to Friday; assay type: in vivo, mouse
Excerpt: Two fALS lines were used to assess survival in genetic backgrounds with different disease severity. […] Dose and dose regimen were estimated from the blood PK/PD profile and BBB penetration described above. A subcutaneous (SC) route of administration was chosen because in our hands it results in more precise delivery. […] In both studies, mice were gender and littermate matched and non ALS-related deaths were excluded. We are currently developing the methods necessary for quantifying copy number and cannot rule out reduced SOD1 expression as having contributed to the survival benefit in treated B6 G93A mice.
The first line was derived by crossing (over >10 generations) congenic fALS “B6 G93A mice” (B6.Cg-Tg(SOD1*G93A)1Gur/J, Stock No. 004435, The Jackson Laboratory, Bar Harbor, Maine, USA) with “YFP-16 mice” [50] (B6.Cg-Tg(Thy1-YFP)16Jrs/J, Stock No. 003709, The Jackson Laboratory, Bar Harbor, Maine, USA). This line maintains the C57BL/6J genetic background and expresses YFP in motor and sensory neurons to enable cellular-level molecular profiling in future studies. The second line is the standard “Hybrid B6SJL G93A mice” (B6SJL-Tg(SOD1*G93A)1Gur/J Stock No. 002726, The Jackson Laboratory, Bar Harbor, Maine, USA). Methods for survival studies have been described and followed the conventions for optimal trial design with fALS mice. Mice were tested for difference in: (1) disease onset (at least a 20% decrease in grip strength and open-field motor performance, which we expect to correlate with change in weight); (2) disease end-stage (disease score, e.g., loss of righting reflex); and (3) weight. The hybrid line was additionally tested for differences in forelimb and hindlimb grip strength.

T2 sequence (P00441 2-154 H47R limits assumed): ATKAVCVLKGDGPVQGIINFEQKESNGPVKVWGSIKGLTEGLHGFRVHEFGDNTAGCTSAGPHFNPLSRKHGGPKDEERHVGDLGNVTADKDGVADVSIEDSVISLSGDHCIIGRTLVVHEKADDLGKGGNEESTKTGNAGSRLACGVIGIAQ
T1 sequence (P00441 2-154 G86R limits assumed): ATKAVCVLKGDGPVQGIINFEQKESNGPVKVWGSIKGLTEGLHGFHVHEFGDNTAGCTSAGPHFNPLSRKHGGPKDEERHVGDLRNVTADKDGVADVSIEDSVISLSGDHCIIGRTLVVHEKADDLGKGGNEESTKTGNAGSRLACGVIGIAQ

Compound: [O-][S+]1CCCCS1 (centres unmarked) [S-XL6, 1,2-dithiane-1-oxide]
- unfolding temperature (Tu) of S-XL6 cross-linked protein (SOD1^G85R; 10-fold molar excess S-XL6, 4 h 37°C, untreated 40.8°C): 65.1 °C
- Normalized ROX (SOD1^G85R; SOD1 G85R Protein+S-XL6, Avg. Temp 88.557): 0.19
- Normalized ROX (SOD1^G85R; SOD1 G85R Protein+S-XL6, Avg. Temp 88.853): 0.18
- Normalized ROX (SOD1^G85R; SOD1 G85R Protein+S-XL6, Avg. Temp 89.160): 0.17
- Normalized ROX (SOD1^G85R; SOD1 G85R Protein+S-XL6, Avg. Temp 89.454): 0.17
- Normalized ROX (SOD1^G85R; SOD1 G85R Protein+S-XL6, Avg. Temp 89.762): 0.16
- Normalized ROX (SOD1^G85R; SOD1 G85R Protein+S-XL6, Avg. Temp 90.051): 0.15
- Normalized ROX (SOD1^G85R; SOD1 G85R Protein+S-XL6, Avg. Temp 90.354): 0.15
- Normalized ROX (SOD1^G85R; SOD1 G85R Protein+S-XL6, Avg. Temp 90.655): 0.14
- Normalized ROX (SOD1^G85R; SOD1 G85R Protein+S-XL6, Avg. Temp 90.952): 0.13
- Normalized ROX (SOD1^G85R; SOD1 G85R Protein+S-XL6, Avg. Temp 91.251): 0.13
- Normalized ROX (SOD1^G85R; SOD1 G85R Protein+S-XL6, Avg. Temp 91.555): 0.12
- Normalized ROX (SOD1^G85R; SOD1 G85R Protein+S-XL6, Avg. Temp 91.855): 0.11
- Normalized ROX (SOD1^G85R; SOD1 G85R Protein+S-XL6, Avg. Temp 92.157): 0.11
- Normalized ROX (SOD1^G85R; SOD1 G85R Protein+S-XL6, Avg. Temp 92.449): 0.10
- Normalized ROX (SOD1^G85R; SOD1 G85R Protein+S-XL6, Avg. Temp 92.753): 0.10
- Normalized ROX (SOD1^G85R; SOD1 G85R Protein+S-XL6, Avg. Temp 93.058): 0.09
- Normalized ROX (SOD1^G85R; SOD1 G85R Protein+S-XL6, Avg. Temp 93.353): 0.09
- Normalized ROX (SOD1^G85R; SOD1 G85R Protein+S-XL6, Avg. Temp 93.651): 0.08
- Normalized ROX (SOD1^G85R; SOD1 G85R Protein+S-XL6, Avg. Temp 93.955): 0.0744
- Normalized ROX (SOD1^G85R; SOD1 G85R Protein+S-XL6, Avg. Temp 94.247): 0.07
- Normalized ROX (SOD1^G85R; SOD1 G85R Protein+S-XL6, Avg. Temp 94.552): 0.07
- Normalized ROX (SOD1^G85R; SOD1 G85R Protein+S-XL6, Avg. Temp 94.853): 0.06
- Normalized ROX (SOD1^G85R; SOD1 G85R Protein+S-XL6, Avg. Temp 95.157): 0.06
- Normalized ROX (SOD1^G85R; SOD1 G85R Protein+S-XL6, Avg. Temp 95.458): 0.05
- Normalized ROX (SOD1^G85R; SOD1 G85R Protein+S-XL6, Avg. Temp 95.752): 0.05
- Normalized ROX (SOD1^G85R; SOD1 G85R Protein+S-XL6, Avg. Temp 96.054): 0.044
- Normalized ROX (SOD1^G85R; SOD1 G85R Protein+S-XL6, Avg. Temp 96.360): 0.04
- Normalized ROX (SOD1^G85R; SOD1 G85R Protein+S-XL6, Avg. Temp 96.652): 0.0332
- Normalized ROX (SOD1^G85R; SOD1 G85R Protein+S-XL6, Avg. Temp 96.955): 0.0323
- Normalized ROX (SOD1^G85R; SOD1 G85R Protein+S-XL6, Avg. Temp 97.253): 0.0276
- Normalized ROX (SOD1^G85R; SOD1 G85R Protein+S-XL6, Avg. Temp 97.554): 0.0216
- Normalized ROX (SOD1^G85R; SOD1 G85R Protein+S-XL6, Avg. Temp 97.851): 0.02
- Normalized ROX (SOD1^G85R; SOD1 G85R Protein+S-XL6, Avg. Temp 98.161): 0.0177
- Normalized ROX (SOD1^G85R; SOD1 G85R Protein+S-XL6, Avg. Temp 98.455): 0.0121
- Normalized ROX (SOD1^G85R; SOD1 G85R Protein+S-XL6, Avg. Temp 98.751): 0.0106
- Normalized ROX (SOD1^G85R; SOD1 G85R Protein+S-XL6, Avg. Temp 99.056): 0.00748
- Normalized ROX (SOD1^G85R; SOD1 G85R Protein+S-XL6, Avg. Temp 99.359): 0.00339
- Normalized ROX (SOD1^G85R; SOD1 G85R Protein+S-XL6, Avg. Temp 99.657): 0.00106
- Normalized ROX (SOD1^G85R; SOD1 G85R Protein+S-XL6, Avg. Temp 99.866): 0.00
- unfolding temperature (Tu) of S-XL6 cross-linked protein (SOD1^H46R; 10-fold molar excess S-XL6, 4 h 37°C, untreated 46.3°C): 69.3 °C
- Normalized ROX (SOD1^H46R; SOD1 H46R Protein+S-XL6, Avg. Temp 88.537): 0.19
- Normalized ROX (SOD1^H46R; SOD1 H46R Protein+S-XL6, Avg. Temp 88.845): 0.18
- Normalized ROX (SOD1^H46R; SOD1 H46R Protein+S-XL6, Avg. Temp 89.124): 0.17
- Normalized ROX (SOD1^H46R; SOD1 H46R Protein+S-XL6, Avg. Temp 89.441): 0.16
- Normalized ROX (SOD1^H46R; SOD1 H46R Protein+S-XL6, Avg. Temp 89.738): 0.15
- Normalized ROX (SOD1^H46R; SOD1 H46R Protein+S-XL6, Avg. Temp 90.026): 0.15
- Normalized ROX (SOD1^H46R; SOD1 H46R Protein+S-XL6, Avg. Temp 90.347): 0.14
- Normalized ROX (SOD1^H46R; SOD1 H46R Protein+S-XL6, Avg. Temp 90.631): 0.13
- Normalized ROX (SOD1^H46R; SOD1 H46R Protein+S-XL6, Avg. Temp 90.929): 0.12
- Normalized ROX (SOD1^H46R; SOD1 H46R Protein+S-XL6, Avg. Temp 91.236): 0.12
- Normalized ROX (SOD1^H46R; SOD1 H46R Protein+S-XL6, Avg. Temp 91.540): 0.11
- Normalized ROX (SOD1^H46R; SOD1 H46R Protein+S-XL6, Avg. Temp 91.847): 0.10
- Normalized ROX (SOD1^H46R; SOD1 H46R Protein+S-XL6, Avg. Temp 92.140): 0.10
- Normalized ROX (SOD1^H46R; SOD1 H46R Protein+S-XL6, Avg. Temp 92.454): 0.09
- Normalized ROX (SOD1^H46R; SOD1 H46R Protein+S-XL6, Avg. Temp 92.741): 0.08
- Normalized ROX (SOD1^H46R; SOD1 H46R Protein+S-XL6, Avg. Temp 93.029): 0.08
- Normalized ROX (SOD1^H46R; SOD1 H46R Protein+S-XL6, Avg. Temp 93.345): 0.07
- Normalized ROX (SOD1^H46R; SOD1 H46R Protein+S-XL6, Avg. Temp 93.646): 0.07
- Normalized ROX (SOD1^H46R; SOD1 H46R Protein+S-XL6, Avg. Temp 93.947): 0.06
- Normalized ROX (SOD1^H46R; SOD1 H46R Protein+S-XL6, Avg. Temp 94.241): 0.06
- Normalized ROX (SOD1^H46R; SOD1 H46R Protein+S-XL6, Avg. Temp 94.530): 0.0527
- Normalized ROX (SOD1^H46R; SOD1 H46R Protein+S-XL6, Avg. Temp 94.809): 0.05
- Normalized ROX (SOD1^H46R; SOD1 H46R Protein+S-XL6, Avg. Temp 95.129): 0.0441
- Normalized ROX (SOD1^H46R; SOD1 H46R Protein+S-XL6, Avg. Temp 95.418): 0.04
- Normalized ROX (SOD1^H46R; SOD1 H46R Protein+S-XL6, Avg. Temp 95.750): 0.0365
- Normalized ROX (SOD1^H46R; SOD1 H46R Protein+S-XL6, Avg. Temp 96.054): 0.032
- Normalized ROX (SOD1^H46R; SOD1 H46R Protein+S-XL6, Avg. Temp 96.342): 0.03
- Normalized ROX (SOD1^H46R; SOD1 H46R Protein+S-XL6, Avg. Temp 96.634): 0.0257
- Normalized ROX (SOD1^H46R; SOD1 H46R Protein+S-XL6, Avg. Temp 96.939): 0.0228
- Normalized ROX (SOD1^H46R; SOD1 H46R Protein+S-XL6, Avg. Temp 97.230): 0.02
- Normalized ROX (SOD1^H46R; SOD1 H46R Protein+S-XL6, Avg. Temp 97.449): 0.017
- Normalized ROX (SOD1^H46R; SOD1 H46R Protein+S-XL6, Avg. Temp 97.842): 0.0143
- Normalized ROX (SOD1^H46R; SOD1 H46R Protein+S-XL6, Avg. Temp 98.133): 0.0127
- Normalized ROX (SOD1^H46R; SOD1 H46R Protein+S-XL6, Avg. Temp 98.436): 0.01
- Normalized ROX (SOD1^H46R; SOD1 H46R Protein+S-XL6, Avg. Temp 98.745): 0.00697
- Normalized ROX (SOD1^H46R; SOD1 H46R Protein+S-XL6, Avg. Temp 99.031): 0.00571
- Normalized ROX (SOD1^H46R; SOD1 H46R Protein+S-XL6, Avg. Temp 99.342): 0.0034
- Normalized ROX (SOD1^H46R; SOD1 H46R Protein+S-XL6, Avg. Temp 99.632): 0.00127
- Normalized ROX (SOD1^H46R; SOD1 H46R Protein+S-XL6, Avg. Temp 99.860): 0.00
- survival benefit (B6SJL G93A mice; 50 mg/kg SC once a day, Monday to Friday, from day 70): no survival benefit; also recorded: No survival improvement
- Age (wks) (B6SJL G93A mice; individual mice, Tx D (dosed), age at end-stage, found dead or sacrifice): 17.7143 wks and 17.5714 wks and 17.8571 wks and 15.5714 wks and 18.7143 wks and 17.4286 wks and 16.1429 wks and 18 wks and 15.8571 wks and 17.1429 wks
- Age (B6SJL G93A mice; individual mice, Tx D (dosed), age at end-stage, found dead or sacrifice (131-day mice sac'd for tissue)): 124 days and 123 days and 125 days and 109 days and 131 days and 122 days and 113 days and 126 days and 111 days and 120 days

— paper PMC10826971, “Evaluating protein cross-linking as a therapeutic strategy to stabilize SOD1 variants in a mouse model of familial ALS” (PLOS Biology, 2024)
